Assay results from patent US20240279214A1, “ALPHA4 BETA7 INEGRIN ANTAGONISTS AND USES THEREOF” (XinThera, Inc., priority 2022, published 2024).

Target: T1, a4b1 integrin interaction with VCAM-1 (Homo sapiens, UniProt P05556+P13612)
T1 construct: capture of a4b1 integrin expressing cells Jurkat; endogenous in cells; host or cells: Jurkat
Experiment: a4b1 Cell Capture Assay (Jurkat cells on VCAM-1 Fc coated plates)
Type: cell-based
Settings: 50% human serum, 1 mM MgCl2, 1 hour incubation, CellTiter-Glo luminescence
Protocol: The potency of inhibitors in preventing a4b1 integrin interaction with VCAM-1 was measured by monitoring the capture of a4b1 integrin expressing cells Jurkat on recombinant human VCAM-1 Fc chimera protein-coated plates. The protein was a fusion between human VCAM-1 (Phe25-Glu698) Accession #P19320, Accession #AAY82472) and human IgG1 (Pro100-Lys330)] (R&D Systems, Catalog #862-VC). 96-well plates (Thermofisher, Catalog #136102) were coated with the recombinant protein by dispensing 100 μL of 0.25 μg/mL per well. After a quick spin to settle down the coating solution using plate centrifuge, plates were incubated overnight at 4° C. in a moisture chamber. On Day 2, the plates were washed with PBS using a Bluecatbio Blue®Washer (GentleSpin wash, 3 cycles, pressure=1, volume 150 uL). Blocking solution (1.0% BSA in PBS, Sigma, Catalog #A7979) was then added at 200 uL/well, and the plates were quickly spun to settle down blocking buffer and incubated in cell culture incubator at 37° C. and 5% CO2 for 1 hour. The plates were then washed with 0.1% BSA in PBS using a Bluecatbio Blue®Washer (GentleSpin wash, 3 cycles, pressure=1, volume 150 uL). Jurkat cells suspended in assay medium (1 mM MgCl2 25 mM HEPES and 50% human serum, Sigma, Catalog #H4522) at a density of 0.5×10^6 cells/mL were added at 100 uL/well. Each compound evaluated was prepared as a DMSO stock solution. Test compounds were evaluated with a 9-point serial dilution curve and were added to the plates using a Tecan D300e Digital dispenser. Each titration curves were performed in triplicate on the same plate, and most of compounds were retested in different dates multiple times. The plates were shaken at 300 rpm on orbital plate shaker for 3 minutes to mix the cells and compounds, quickly spun to settle the cells and solution, and incubated in cell culture incubator at 37° C. and 5% CO2. After 1 hour incubation, the unbound cells were washed away with RPMI1640 medium supplemented with 1 mM MgCl2 and 1% BSA) (wash buffer) using a Bluecatbio Blue®Washer (MagbeadsSpin wash, 1 cycle, pressure 1, volume=150 uL). After wash buffer removal, A mixture of wash buffer/CellTiter-Glo® Reagent (Pormega, catalog #G7573) at 1:1 (V/V) was added at volume of 100 uL to each well. The plates were placed in a chamber at 25° C. and incubated for 30 minutes. Luminescence was recorded using a Envision plate reader 2105 according to CellTiter-Glo protocol.
The mean luminescence signals from negative control wells without VCAM-1 coating and compound treatment (cells only) was defined as 100% binding inhibition, and the mean luminescence signals from positive control wells with VCAM-1 coating but without compound treatment (VCAM-1 and cells only) was defined as 0% binding inhibition. The luminescence signals from other compound treated wells were normalized in percentage scale accordingly. The normalized mean % inhibition data were plotted against logarithmic compound concentration in nanomolar and were fitted with 4-parameter logistic model to obtain IC50 for each compound.

T1 sequence (P13612 34-1032): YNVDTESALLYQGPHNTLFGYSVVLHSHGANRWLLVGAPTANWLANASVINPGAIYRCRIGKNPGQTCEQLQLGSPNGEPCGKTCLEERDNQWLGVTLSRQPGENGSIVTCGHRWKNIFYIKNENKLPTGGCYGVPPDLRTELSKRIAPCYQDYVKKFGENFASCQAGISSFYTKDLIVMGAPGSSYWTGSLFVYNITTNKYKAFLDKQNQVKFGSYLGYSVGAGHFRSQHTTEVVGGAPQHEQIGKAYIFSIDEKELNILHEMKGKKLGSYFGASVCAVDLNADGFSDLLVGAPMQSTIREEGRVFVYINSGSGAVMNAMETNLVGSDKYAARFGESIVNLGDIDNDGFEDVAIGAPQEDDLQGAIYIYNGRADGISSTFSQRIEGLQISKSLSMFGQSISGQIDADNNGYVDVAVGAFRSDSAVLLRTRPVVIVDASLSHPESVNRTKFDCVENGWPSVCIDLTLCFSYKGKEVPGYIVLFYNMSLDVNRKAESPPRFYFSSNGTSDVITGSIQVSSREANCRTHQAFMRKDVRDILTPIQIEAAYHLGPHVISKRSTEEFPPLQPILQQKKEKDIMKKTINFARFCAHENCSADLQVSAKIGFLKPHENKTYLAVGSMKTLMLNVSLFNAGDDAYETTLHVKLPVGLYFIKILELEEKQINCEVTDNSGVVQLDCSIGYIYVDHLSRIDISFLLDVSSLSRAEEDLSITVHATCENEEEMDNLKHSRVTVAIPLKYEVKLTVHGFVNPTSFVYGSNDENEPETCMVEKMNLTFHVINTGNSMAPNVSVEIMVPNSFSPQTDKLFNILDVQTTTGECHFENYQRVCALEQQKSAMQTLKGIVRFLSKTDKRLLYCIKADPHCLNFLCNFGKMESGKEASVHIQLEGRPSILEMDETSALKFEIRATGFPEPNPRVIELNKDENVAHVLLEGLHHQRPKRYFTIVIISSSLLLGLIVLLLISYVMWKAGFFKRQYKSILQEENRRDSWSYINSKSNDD
T1 sequence (P05556 21-798): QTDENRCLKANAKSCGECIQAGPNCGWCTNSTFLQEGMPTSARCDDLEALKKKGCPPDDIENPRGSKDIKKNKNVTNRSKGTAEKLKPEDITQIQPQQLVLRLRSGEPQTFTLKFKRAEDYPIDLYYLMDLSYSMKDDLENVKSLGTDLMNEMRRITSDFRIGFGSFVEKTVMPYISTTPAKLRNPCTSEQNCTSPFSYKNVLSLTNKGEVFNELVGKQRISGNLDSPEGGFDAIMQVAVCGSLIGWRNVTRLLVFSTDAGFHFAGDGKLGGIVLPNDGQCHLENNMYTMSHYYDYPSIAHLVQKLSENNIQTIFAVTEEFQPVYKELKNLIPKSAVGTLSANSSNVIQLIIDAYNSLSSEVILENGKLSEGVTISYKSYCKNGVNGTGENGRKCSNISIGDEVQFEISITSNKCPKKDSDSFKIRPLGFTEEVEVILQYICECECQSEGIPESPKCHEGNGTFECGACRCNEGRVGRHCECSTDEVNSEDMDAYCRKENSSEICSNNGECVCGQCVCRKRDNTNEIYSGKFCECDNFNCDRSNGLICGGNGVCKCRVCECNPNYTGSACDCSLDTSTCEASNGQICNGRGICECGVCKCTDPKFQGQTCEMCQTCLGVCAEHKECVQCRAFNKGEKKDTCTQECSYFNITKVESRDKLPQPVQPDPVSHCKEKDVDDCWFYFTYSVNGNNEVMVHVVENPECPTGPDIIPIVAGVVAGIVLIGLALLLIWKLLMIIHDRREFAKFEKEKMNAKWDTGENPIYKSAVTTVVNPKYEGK

| Structure (SMILES) | EC50 |
| --- | --- |
| Cc1cc(C2CC2)cc2c1-c1cc(c(F)c(C(F)(F)F)c1)[C@H](CC(=O)O)NC(=O)[C@@H](n1cc(CCN3CC(F)C3)c(C(F)(F)F)cc1=O)c1cccc(c1)O2 (relative stereo) [Example 10, [(14R*,17S)-5-cyclopropyl-19-fluoro-14-{5-[2-(3-fluoroazetidin-1-yl)ethyl]-2-oxo-4-(trifluoromethyl)pyridin-1-yl}-3-methyl-15-oxo-20-(trifluoromethyl)-8-oxa-16-azatetracyclo[16.3.1.1^{9,13}.0^{2,7}]tricosa-1(21),2(7),3,5,9,11,13(23),18(22),19-nonaen-17-yl]acetic acid] | 11900 nM |
| Cc1cc(C)c2c(c1)Oc1cccc(c1)[C@H](n1cc(CCCN(C)C)c(C(F)(F)F)cc1=O)C(=O)N[C@@H](CC(=O)O)c1cn-2nc1C(F)(F)F (relative stereo) [Example 18, [(13S,16R*)-16-{5-[3-(dimethylamino)propyl]-2-oxo-4-(trifluoromethyl)pyridin-1-yl}-5,7-dimethyl-15-oxo-11-(trifluoromethyl)-2-oxa-9,10,14-triazatetracyclo[15.3.1.1^{9,12}.0^{3,8}]docosa-1(20),3(8),4,6,10,12(22),17(21),18-octaen-13-yl]acetic acid] | 689 nM |
| Cc1cc2cc(c1F)[C@H](CC(=O)O)NC(=O)[C@@H](n1cc(CCN3CC(F)C3)c(C(F)(F)F)cc1=O)c1cc(Cl)cc(c1)Oc1cccc(C)c1-2 (single isomer, unassigned) [Example 3] | 359 nM |
| Cc1cc(Cl)cc2c1-c1cc(c(F)c(C(F)(F)F)c1)[C@H](CC(=O)O)NC(=O)[C@@H](n1cc(CCN3CC(F)C3)c(C(F)(F)F)cc1=O)c1cccc(c1)O2 (single isomer, unassigned) [Example 11] | 4580 nM |
| Cc1cc2cc(c1F)[C@H](CC(=O)O)NC(=O)[C@@H](n1cc(CCN3CC(F)C3)c(C(F)(F)F)cc1=O)c1cc(ccc1F)Oc1cccc(C)c1-2 (relative stereo) [Example 7, [(14R*,17S)-12,19-difluoro-14-{5-[2-(3-fluoroazetidin-1-yl)ethyl]-2-oxo-4-(trifluoromethyl)pyridin-1-yl}-3,20-dimethyl-15-oxo-8-oxa-16-azatetracyclo[16.3.1.1^{9,13}.0^{2,7}]tricosa-1(21),2(7),3,5,9(23),10,12,18(22),19-nonaen-17-yl]acetic acid] | 61.5 nM |
| Cc1cccc2c1-c1cc(c(F)c(C(F)(F)F)c1)[C@H](CC(=O)O)NC(=O)[C@@H](n1cc(CCN3CC(F)C3)c(C(F)(F)F)cc1=O)c1cc(Cl)cc(c1)O2 (relative stereo) [Example 15, [(14R*,17S)-11-chloro-19-fluoro-14-{5-[2-(3-fluoroazetidin-1-yl)ethyl]-2-oxo-4-(trifluoromethyl)pyridin-1-yl}-3-methyl-15-oxo-20-(trifluoromethyl)-8-oxa-16-azatetracyclo[16.3.1.1^{9,13}.0^{2,7}]tricosa-1(22),2(7),3,5,9,11,13(23),18,20-nonaen-17-yl]acetic acid] | 880 nM |
| Cc1cc2cc(c1F)[C@H](CC(=O)O)NC(=O)[C@@H](n1cc(CCN3CC(F)C3)c(C(F)(F)F)cc1=O)c1cccc(c1)Oc1cccc(C)c1-2 (relative stereo) [Example 1, rel-2-((5S,8S)-1^4-fluoro-5-(5-(2-(3-fluoroazetidin-1-yl)ethyl)-2-oxo-4-(trifluoromethyl)pyridin-1(2H)-yl)-1^5,2^6-dimethyl-6-oxo-3-oxa-7-aza-1,4(1,3),2(1,2)-tribenzenacyclooctaphane-8-yl)acetic acid] | 2080 nM |
